Experimental data reported in PubChem BioAssay AID256 (DTP/NCI, 2004).
Values joined by “and” are separate entries in the source; they are usually repeats but may differ in a detail not shown here. Identical values can stand only once. Inconclusive results and toxic doses are left out.

Test system: CD2F1 mice, L1210 leukemia ip, survival T/C
Experiment: NCI In Vivo Anticancer Drug Screen. Data for tumor model L1210 Leukemia (intraperitoneal) in CD2F1 (CDF1) mice
Conditions: endpoint: mean survival time, higher = longer survival
Procedure, shortened: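 In this screen, transplantable tumors were grown in mice given either the compound or its vehicle. Results were expressed as the treated measurement relative to the control measurement.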

**Q.** For `Nc1nc(=S)c2ncn(C3CC(O)C(CO)O3)c2[nH]1` (stereo unspecified), which T/C (dose: 1.25 mg/kg/injection, schedule: Q01DX005 (ip), vehicle: saline) is on record?
**A.** 150 % of control

**Q.** And the T/C (dose: 2.5 mg/kg/injection, schedule: Q01DX001 (ip), vehicle: steriod suspending solution)?
**A.** 123 % of control

**Q.** And the T/C (dose: 4.0 mg/kg/injection, schedule: Q01DX009 (sc), vehicle: saline)?
**A.** 108 % of control

**Q.** And the T/C (dose: 5.0 mg/kg/injection, schedule: Q01DX005 (ip), vehicle: saline with Tween-80)?
**A.** 154 % of control

**Q.** And the T/C (dose: 5.0 mg/kg/injection, schedule: Q01DX005 (oral), vehicle: saline)?
**A.** 160 % of control

**Q.** What about the T/C (dose: 5.0 mg/kg/injection, schedule: Q04DX003 (ip), vehicle: water) of the same molecule?
**A.** 153 % of control

**Q.** And the T/C (dose: 8.0 mg/kg/injection, schedule: Q01DX009 (ip), vehicle: saline)?
**A.** 151 % of control

**Q.** And the T/C (dose: 8.0 mg/kg/injection, schedule: Q01DX009 (sc), vehicle: saline)?
**A.** 106 % of control

**Q.** What about the T/C (dose: 10.0 mg/kg/injection, schedule: Q01DX005 (ip), vehicle: saline with Tween-80) of the same molecule?
**A.** 120 % of control

**Q.** What about the T/C (dose: 10.0 mg/kg/injection, schedule: Q01DX005 (ip), vehicle: saline) of the same molecule?
**A.** 151 % of control

**Q.** And the T/C (dose: 10.0 mg/kg/injection, schedule: Q01DX005 (oral), vehicle: saline)?
**A.** 156 % of control

**Q.** What about the T/C (dose: 10.0 mg/kg/injection, schedule: Q04DX003 (ip), vehicle: suspension in saline) of the same molecule?
**A.** 154 % of control

**Q.** And the T/C (dose: 10.0 mg/kg/injection, schedule: Q04DX003 (iv), vehicle: suspension in saline)?
**A.** 177 % of control

**Q.** And the T/C (dose: 16.0 mg/kg/injection, schedule: Q01DX005 (ip), vehicle: saline)?
**A.** 161 % of control

**Q.** What about the T/C (dose: 16.0 mg/kg/injection, schedule: Q01DX009 (ip), vehicle: saline) of the same molecule?
**A.** 170 % of control

**Q.** What about the T/C (dose: 16.0 mg/kg/injection, schedule: Q01DX009 (ip), vehicle: water) of the same molecule?
**A.** 108 % of control

**Q.** And the T/C (dose: 16.0 mg/kg/injection, schedule: Q01DX009 (sc), vehicle: saline)?
**A.** 151 % of control

**Q.** What about the T/C (dose: 20.0 mg/kg/injection, schedule: Q01DX001 (sc), vehicle: saline) of the same molecule?
**A.** 121 % of control

**Q.** And the T/C (dose: 20.0 mg/kg/injection, schedule: Q01DX005 (oral), vehicle: saline)?
**A.** 151 % of control

**Q.** What about the T/C (dose: 20.0 mg/kg/injection, schedule: Q03HX008 (ip), vehicle: saline) of the same molecule?
**A.** 152 % of control

**Q.** What about the T/C (dose: 20.0 mg/kg/injection, schedule: Q03HX024 (ip), vehicle: saline) of the same molecule?
**A.** 150 % of control

**Q.** And the T/C (dose: 20.0 mg/kg/injection, schedule: Q04DX003 (ip), vehicle: saline)?
**A.** 157 % of control

**Q.** What about the T/C (dose: 20.0 mg/kg/injection, schedule: Q04DX003 (ip), vehicle: suspension in saline) of the same molecule?
**A.** 159 % of control

**Q.** What about the T/C (dose: 20.0 mg/kg/injection, schedule: Q04DX003 (iv), vehicle: suspension in saline) of the same molecule?
**A.** 159 % of control

**Q.** And the T/C (dose: 24.0 mg/kg/injection, schedule: Q01DX009 (ip), vehicle: water)?
**A.** 116 % of control and 103 % of control

**Q.** What about the T/C (dose: 24.0 mg/kg/injection, schedule: Q04DX003 (ip), vehicle: water) of the same molecule?
**A.** 118 % of control

**Q.** What about the T/C (dose: 32.0 mg/kg/injection, schedule: Q01DX005 (ip), vehicle: saline) of the same molecule?
**A.** 152 % of control

**Q.** And the T/C (dose: 32.0 mg/kg/injection, schedule: Q01DX009 (ip), vehicle: saline)?
**A.** 157 % of control

**Q.** And the T/C (dose: 32.0 mg/kg/injection, schedule: Q01DX009 (sc), vehicle: saline)?
**A.** 150 % of control

**Q.** And the T/C (dose: 36.0 mg/kg/injection, schedule: Q01DX009 (ip), vehicle: water)?
**A.** 103 % of control

**Q.** What about the T/C (dose: 36.0 mg/kg/injection, schedule: Q04DX003 (ip), vehicle: water) of the same molecule?
**A.** 111 % of control

**Q.** And the T/C (dose: 37.5 mg/kg/injection, schedule: Q04DX003 (ip), vehicle: clinical formulation)?
**A.** 102 % of control

**Q.** What about the T/C (dose: 37.5 mg/kg/injection, schedule: Q04DX003 (ip), vehicle: saline) of the same molecule?
**A.** 163 % of control

**Q.** And the T/C (dose: 40.0 mg/kg/injection, schedule: Q03HX008 (ip), vehicle: saline)?
**A.** 157 % of control

**Q.** And the T/C (dose: 40.0 mg/kg/injection, schedule: Q03HX016 (ip), vehicle: saline)?
**A.** 156 % of control

**Q.** And the T/C (dose: 40.0 mg/kg/injection, schedule: Q03HX024 (ip), vehicle: saline)?
**A.** 159 % of control

**Q.** And the T/C (dose: 40.0 mg/kg/injection, schedule: Q04DX003 (ip), vehicle: saline)?
**A.** 178 % of control

**Q.** What about the T/C (dose: 40.0 mg/kg/injection, schedule: Q04DX003 (ip), vehicle: suspension in saline) of the same molecule?
**A.** 151 % of control

**Q.** What about the T/C (dose: 40.0 mg/kg/injection, schedule: Q04DX003 (iv), vehicle: suspension in saline) of the same molecule?
**A.** 189 % of control

**Q.** What about the T/C (dose: 40.0 mg/kg/injection, schedule: Q08DX002 (ip), vehicle: saline) of the same molecule?
**A.** 152 % of control

**Q.** What about the T/C (dose: 50.0 mg/kg/injection, schedule: Q01DX009 (ip), vehicle: water) of the same molecule?
**A.** 107 % of control

**Q.** And the T/C (dose: 50.0 mg/kg/injection, schedule: Q04DX003 (ip), vehicle: water)?
**A.** 120 % of control and 103 % of control

**Q.** What about the T/C (dose: 64.0 mg/kg/injection, schedule: Q01DX009 (ip), vehicle: saline) of the same molecule?
**A.** 123 % of control

**Q.** And the T/C (dose: 75.0 mg/kg/injection, schedule: Q04DX003 (ip), vehicle: clinical formulation)?
**A.** 111 % of control

**Q.** What about the T/C (dose: 75.0 mg/kg/injection, schedule: Q04DX003 (ip), vehicle: saline) of the same molecule?
**A.** 154 % of control

**Q.** And the T/C (dose: 76.0 mg/kg/injection, schedule: Q01DX009 (ip), vehicle: water)?
**A.** 115 % of control

**Q.** What about the T/C (dose: 76.0 mg/kg/injection, schedule: Q04DX003 (ip), vehicle: water) of the same molecule?
**A.** 122 % of control and 103 % of control

**Q.** What about the T/C (dose: 80.0 mg/kg/injection, schedule: Q01DX001 (ip), vehicle: saline) of the same molecule?
**A.** 154 % of control

**Q.** What about the T/C (dose: 80.0 mg/kg/injection, schedule: Q03HX008 (ip), vehicle: saline) of the same molecule?
**A.** 161 % of control

**Q.** And the T/C (dose: 80.0 mg/kg/injection, schedule: Q03HX016 (ip), vehicle: saline)?
**A.** 168 % of control

**Q.** What about the T/C (dose: 80.0 mg/kg/injection, schedule: Q03HX024 (ip), vehicle: saline) of the same molecule?
**A.** 161 % of control

**Q.** And the T/C (dose: 80.0 mg/kg/injection, schedule: Q04DX003 (ip), vehicle: saline)?
**A.** 174 % of control

**Q.** What about the T/C (dose: 80.0 mg/kg/injection, schedule: Q04DX003 (ip), vehicle: suspension in saline) of the same molecule?
**A.** 154 % of control

**Q.** What about the T/C (dose: 80.0 mg/kg/injection, schedule: Q04DX003 (iv), vehicle: suspension in saline) of the same molecule?
**A.** 162 % of control

**Q.** And the T/C (dose: 80.0 mg/kg/injection, schedule: Q08DX002 (ip), vehicle: saline)?
**A.** 154 % of control

**Q.** And the T/C (dose: 96.0 mg/kg/injection, schedule: Q01DX009 (oral), vehicle: saline)?
**A.** 115 % of control

**Q.** What about the T/C (dose: 116.0 mg/kg/injection, schedule: Q01DX005 (ip), vehicle: water) of the same molecule?
**A.** 117 % of control

**Q.** What about the T/C (dose: 116.0 mg/kg/injection, schedule: Q01DX009 (ip), vehicle: water) of the same molecule?
**A.** 150 % of control

**Q.** And the T/C (dose: 116.0 mg/kg/injection, schedule: Q04DX003 (ip), vehicle: water)?
**A.** 106 % of control

**Q.** And the T/C (dose: 150.0 mg/kg/injection, schedule: Q04DX003 (ip), vehicle: saline)?
**A.** 152 % of control

**Q.** What about the T/C (dose: 160.0 mg/kg/injection, schedule: Q03HX008 (ip), vehicle: saline) of the same molecule?
**A.** 160 % of control

**Q.** What about the T/C (dose: 160.0 mg/kg/injection, schedule: Q03HX016 (ip), vehicle: saline) of the same molecule?
**A.** 174 % of control

**Q.** And the T/C (dose: 160.0 mg/kg/injection, schedule: Q03HX024 (ip), vehicle: saline)?
**A.** 155 % of control

**Q.** And the T/C (dose: 160.0 mg/kg/injection, schedule: Q04DX003 (ip), vehicle: saline)?
**A.** 162 % of control

**Q.** What about the T/C (dose: 160.0 mg/kg/injection, schedule: Q08DX002 (ip), vehicle: saline) of the same molecule?
**A.** 158 % of control and 152 % of control

**Q.** What about the T/C (dose: 176.0 mg/kg/injection, schedule: Q01DX005 (ip), vehicle: water) of the same molecule?
**A.** 105 % of control

**Q.** What about the T/C (dose: 176.0 mg/kg/injection, schedule: Q04DX003 (ip), vehicle: water) of the same molecule?
**A.** 121 % of control

**Q.** And the T/C (dose: 192.0 mg/kg/injection, schedule: Q01DX009 (oral), vehicle: saline)?
**A.** 106 % of control

**Q.** What about the T/C (dose: 240.0 mg/kg/injection, schedule: Q01DX001 (oral), vehicle: saline) of the same molecule?
**A.** 152 % of control

**Q.** What about the T/C (dose: 266.0 mg/kg/injection, schedule: Q01DX005 (ip), vehicle: water) of the same molecule?
**A.** 88 % of control

**Q.** What about the T/C (dose: 266.0 mg/kg/injection, schedule: Q04DX003 (ip), vehicle: water) of the same molecule?
**A.** 115 % of control

**Q.** And the T/C (dose: 300.0 mg/kg/injection, schedule: Q04DX003 (ip), vehicle: saline)?
**A.** 101 % of control

**Q.** And the T/C (dose: 320.0 mg/kg/injection, schedule: Q01DX001 (oral), vehicle: saline)?
**A.** 152 % of control

**Q.** And the T/C (dose: 320.0 mg/kg/injection, schedule: Q03HX008 (ip), vehicle: saline)?
**A.** 162 % of control

**Q.** And the T/C (dose: 320.0 mg/kg/injection, schedule: Q03HX016 (ip), vehicle: saline)?
**A.** 158 % of control

**Q.** What about the T/C (dose: 320.0 mg/kg/injection, schedule: Q04DX003 (ip), vehicle: suspension in saline) of the same molecule?
**A.** 108 % of control
